Literature values, collected in US5585379A, “Acyclovir antiviral gel composition” (AGIS Industries (1983) Ltd., priority 1992, dated 1996).
Where two headings read alike, the source gives them in different places.

Legend:
[1] = system: herpes simplex virus; settings: in vitro and in vivo
[2] = system: herpes simplex virus infections
[3] = oral

## Nc1nc2c(ncn2COCCO)c(=O)[nH]1 [Acyclovir, 9-(2-hydroxyethoxymethyl)guanine]
[1]
  antiviral activity against herpes simplex virus (words): active against herpes simplex virus
[1]; listed as acyclovir
  antiviral activity against herpes simplex virus (words): potent antiviral activity against herpes simplex virus
[2]
  efficacy of topical therapy compared to oral or parenteral: lacks efficacy as compared to oral or parenteral administrations
[3]
  therapeutic effect on vulvar vestibulitis: therapeutic effect on vulvar vestibulitis
Hydrophobic solvent systems
  solubility in hydrophobic solvent systems: almost totally insoluble in hydrophobic solvent systems
other
  solubility in water (words): low solubility in water
Listed as acyclovir
  solubility in water (words): poor water-solubility
